According to patent publication US10947242B2, “[1,2,4]triazolo[1,5and#8208;A]pyrimidine compounds as PDE2 inhibitors” (Janssen Pharmaceutica NV, priority 2016, dated 2021):
Where two headings read alike, the source gives them in different places.

Tests used:
Format in all cases: biochemical
[1] = biological target: T1, Human recombinant PDE3A (hPDE3A) (Homo sapiens, UniProt Q14432); assay: In vitro assay PDE3A (SPA, 3H-cAMP hydrolysis); details: for IC50: hPDE3B pIC50, read-out: pIC50 (converted); for Emax: read-out: hPDE3B Emax, read-out: Emax;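 for all read-outs here: the method names PDE3A and the table heading PDE3B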
T1 construct: purchased Scottish Biomedical; host or cells: Sf9 insect cells
Outline: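 Human PDE3A, cloned from brain, as partially purified Sf9 lysate. Substrate 0.4 μM cAMP plus [3H]-cAMP (2.4 μCi/ml final) in 50 mM Tris pH 7.8, 8.3 mM MgCl2, 1.7 mM EGTA, 60 min at room temperature, 1% DMSO final. Hydrolysis read by SPA scintillation counting against no-enzyme blanks and DMSO controls.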

[2] = biological target: T2, Human recombinant PDE2A (hPDE2A) (Homo sapiens, UniProt O00408); assay: In vitro assay PDE2A (SPA, 3H-cGMP hydrolysis); details: for IC50: read-out: hPDE2A pIC50 (converted); for Emax: read-out: hPDE2A Emax
T2 construct: His tag (inferred from metal chelate purification); made in house; host or cells: Sf9 insect cells (baculovirus)

[3] = biological target: T3, Human recombinant PDE10A (hPDE10A) (Homo sapiens, UniProt Q9Y233); assay: In vitro assay PDE10A, human clone (SPA, 3H-cAMP hydrolysis)
T3 construct: His tag (inferred from metal chelate purification); made in house; host or cells: Sf9 insect cells (baculovirus)
Outline: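 Human recombinant PDE10A was expressed in Sf9 cells via baculovirus and incubated with compound in 50 mM Tris pH 7.8, 8.3 mM MgCl2, 1.7 mM EGTA. Substrate was 60 nM cAMP plus 0.008 μCi 3H-cAMP for 60 min at room temperature, read by SPA scintillation counting. Controls used 1% DMSO, and blanks omitted enzyme.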

[4] = human recombinant PDE2A, 10 μM cGMP substrate
[5] = human clone (h), default, read-out: hPDE10A2 Emax
[6] = human clone (h), default, read-out: hPDE10A2 pIC50 (converted)
[7] = human clone by default (no (r) mark), read-out: hPDE10A2 or rPDE10A2 Emax
[8] = human clone by default (no (r) mark), read-out: hPDE10A2 or rPDE10A2 pIC50 (converted)

T2 sequence (O00408 whole entry): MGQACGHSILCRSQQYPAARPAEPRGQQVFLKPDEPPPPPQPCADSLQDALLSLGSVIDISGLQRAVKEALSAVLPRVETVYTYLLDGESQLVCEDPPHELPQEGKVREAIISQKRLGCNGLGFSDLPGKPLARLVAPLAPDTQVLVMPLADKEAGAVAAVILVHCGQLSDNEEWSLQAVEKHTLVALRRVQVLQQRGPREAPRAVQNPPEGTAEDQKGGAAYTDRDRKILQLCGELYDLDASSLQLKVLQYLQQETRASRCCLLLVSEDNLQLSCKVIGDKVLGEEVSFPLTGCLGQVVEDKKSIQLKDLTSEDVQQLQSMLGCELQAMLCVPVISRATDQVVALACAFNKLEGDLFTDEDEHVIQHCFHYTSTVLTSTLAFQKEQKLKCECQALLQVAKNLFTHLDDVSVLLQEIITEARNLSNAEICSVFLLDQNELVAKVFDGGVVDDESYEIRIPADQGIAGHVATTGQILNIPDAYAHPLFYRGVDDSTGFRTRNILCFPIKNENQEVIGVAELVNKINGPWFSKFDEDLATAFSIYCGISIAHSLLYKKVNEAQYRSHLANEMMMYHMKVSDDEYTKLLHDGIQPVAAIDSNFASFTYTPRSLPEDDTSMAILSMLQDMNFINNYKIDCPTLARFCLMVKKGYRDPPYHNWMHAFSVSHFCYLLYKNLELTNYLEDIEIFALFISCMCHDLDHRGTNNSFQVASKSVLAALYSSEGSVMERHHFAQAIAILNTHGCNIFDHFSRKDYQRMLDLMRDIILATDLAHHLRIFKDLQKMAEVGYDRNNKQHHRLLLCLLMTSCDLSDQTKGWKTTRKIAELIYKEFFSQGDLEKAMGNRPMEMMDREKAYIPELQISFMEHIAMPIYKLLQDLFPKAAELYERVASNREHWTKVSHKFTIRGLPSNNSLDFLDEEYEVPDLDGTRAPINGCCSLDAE
T1 sequence (Q14432 whole entry): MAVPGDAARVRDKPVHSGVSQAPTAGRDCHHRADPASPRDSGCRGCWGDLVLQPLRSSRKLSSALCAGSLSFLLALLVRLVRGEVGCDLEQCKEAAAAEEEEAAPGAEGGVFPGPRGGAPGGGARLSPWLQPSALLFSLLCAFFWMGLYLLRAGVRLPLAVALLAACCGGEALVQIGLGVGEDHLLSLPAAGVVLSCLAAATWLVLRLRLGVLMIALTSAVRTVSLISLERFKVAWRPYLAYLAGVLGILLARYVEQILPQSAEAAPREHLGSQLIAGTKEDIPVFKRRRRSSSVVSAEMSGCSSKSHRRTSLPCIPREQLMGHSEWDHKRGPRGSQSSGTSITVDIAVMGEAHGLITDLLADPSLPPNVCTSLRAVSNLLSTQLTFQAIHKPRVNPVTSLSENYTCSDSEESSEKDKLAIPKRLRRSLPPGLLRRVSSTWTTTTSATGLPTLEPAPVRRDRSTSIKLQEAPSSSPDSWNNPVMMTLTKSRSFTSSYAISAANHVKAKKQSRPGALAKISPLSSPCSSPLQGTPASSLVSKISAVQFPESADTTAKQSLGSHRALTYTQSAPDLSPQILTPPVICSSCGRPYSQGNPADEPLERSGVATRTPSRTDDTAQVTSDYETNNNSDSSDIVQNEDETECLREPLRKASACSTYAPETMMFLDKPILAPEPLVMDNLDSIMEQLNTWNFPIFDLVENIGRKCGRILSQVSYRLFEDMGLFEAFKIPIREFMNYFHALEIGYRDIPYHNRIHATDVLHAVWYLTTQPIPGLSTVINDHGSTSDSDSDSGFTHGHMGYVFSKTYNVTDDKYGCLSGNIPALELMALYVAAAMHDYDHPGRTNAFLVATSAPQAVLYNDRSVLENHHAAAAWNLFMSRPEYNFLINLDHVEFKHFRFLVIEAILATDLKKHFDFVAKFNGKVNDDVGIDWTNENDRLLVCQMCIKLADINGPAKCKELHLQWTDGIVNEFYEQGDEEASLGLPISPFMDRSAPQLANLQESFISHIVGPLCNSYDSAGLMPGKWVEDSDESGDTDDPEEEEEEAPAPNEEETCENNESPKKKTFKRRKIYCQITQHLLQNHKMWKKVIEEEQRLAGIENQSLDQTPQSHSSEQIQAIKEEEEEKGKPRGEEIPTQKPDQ
T3 sequence (Q9Y233 267-1055): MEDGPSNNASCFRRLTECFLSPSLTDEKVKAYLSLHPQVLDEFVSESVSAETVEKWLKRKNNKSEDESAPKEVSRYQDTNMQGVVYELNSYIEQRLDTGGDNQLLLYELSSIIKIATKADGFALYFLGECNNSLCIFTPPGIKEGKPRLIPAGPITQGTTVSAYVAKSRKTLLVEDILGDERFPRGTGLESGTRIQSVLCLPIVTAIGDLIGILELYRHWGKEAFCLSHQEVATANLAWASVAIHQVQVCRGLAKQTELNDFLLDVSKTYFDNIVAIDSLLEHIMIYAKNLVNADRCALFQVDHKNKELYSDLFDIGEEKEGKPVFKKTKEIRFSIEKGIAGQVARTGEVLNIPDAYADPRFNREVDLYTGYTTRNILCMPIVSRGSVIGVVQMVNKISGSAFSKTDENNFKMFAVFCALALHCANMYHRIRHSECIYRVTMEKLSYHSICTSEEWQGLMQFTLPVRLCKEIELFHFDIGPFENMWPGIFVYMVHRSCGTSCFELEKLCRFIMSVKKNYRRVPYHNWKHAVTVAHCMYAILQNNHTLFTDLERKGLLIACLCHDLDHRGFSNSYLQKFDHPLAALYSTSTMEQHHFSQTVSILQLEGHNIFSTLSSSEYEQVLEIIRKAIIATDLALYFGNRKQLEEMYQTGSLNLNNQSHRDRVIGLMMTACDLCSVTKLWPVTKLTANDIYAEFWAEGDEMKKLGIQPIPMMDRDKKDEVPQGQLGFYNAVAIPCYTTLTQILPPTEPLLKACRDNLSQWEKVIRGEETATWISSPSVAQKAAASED

| SMILES | IC50 [1] | Emax [1] | IC50 [2, 4] | Emax ([2]; human recombinant PDE2A) | Emax [2] | IC50 [2] | Emax [3, 5] | IC50 [3, 6] | Emax [3, 7] | IC50 [3, 8] |
| --- | --- | --- | --- | --- | --- | --- | --- | --- | --- | --- |
| Cc1cc([C@@H]2CC[C@@H]3CC[C@H]2N3C(=O)c2ccc3ncsc3c2)n2ncnc2n1 [Compound 230] | > 10000 nM | 40% | 1020 nM | 93% | 93% | 1020 nM | 65% | 5370 nM | 65% | 5370 nM |
| Cc1cnc(C(=O)N2CC[C@@H](C)[C@H](c3cc(C(F)F)nc4ncnn34)C2)cn1 [Compound 232] | > 10000 nM | 31% | 214 nM | 99% | 99% | 214 nM | 48% | > 10000 nM | 48% | > 10000 nM |
| C[C@@H]1CCN(C(=O)c2ncccc2N)C[C@H]1c1cc(C(F)F)nc2ncnn12 [Compound 233] | > 10000 nM | 10% | 575 nM | 94% | 94% | 575 nM | 26% | > 10000 nM | 26% | > 10000 nM |
| C[C@@H]1CCN(C(=O)c2ccc(C#N)cn2)C[C@H]1c1cc(C(F)F)nc2ncnn12 [Compound 234] | > 10000 nM | 22% | 513 nM | 96% | 96% | 513 nM | 59% | 8710 nM | 59% | 8710 nM |
| C[C@@H]1CCN(C(=O)c2ccncc2Cl)C[C@H]1c1cc(C(F)F)nc2ncnn12 [Compound 235] | > 10000 nM | 32% | 123 nM | 98% | 98% | 123 nM | 67% | 5500 nM | 67% | 5500 nM |
| C[C@@H]1CCN(C(=O)c2ccc(O)nn2)C[C@H]1c1cc(C(F)F)nc2ncnn12 [Compound 236] | > 10000 nM | 18% | 209 nM | 100% | 100% | 209 nM | 58% | 7760 nM | 58% | 7760 nM |
| C[C@@H]1CCN(C(=O)c2nccnc2Cl)C[C@H]1c1cc(C(F)F)nc2ncnn12 [Compound 237] | > 10000 nM | 20% | 186 nM | 97% | 97% | 186 nM | 51% | 8130 nM | 51% | 8130 nM |
| C[C@@H]1CCN(C(=O)c2ncc(C#N)cc2Cl)C[C@H]1c1cc(C(F)F)nc2ncnn12 [Compound 238] | > 10000 nM | 35% | 380 nM | 94% | 94% | 380 nM | 48% |  | 48% |  |
| C[C@@H]1CCN(C(=O)c2ccncc2C(F)(F)F)C[C@H]1c1cc(C(F)F)nc2ncnn12 [Compound 239] | > 10000 nM | 16% | 191 nM | 96% | 96% | 191 nM | 43% | > 10000 nM | 43% | > 10000 nM |
| C[C@@H]1CCN(C(=O)c2ncc[nH]2)C[C@H]1c1cc(C(F)F)nc2ncnn12 [Compound 240] | > 10000 nM | 9% | 1550 nM | 90% | 90% | 1550 nM | 51% | 9120 nM | 51% | 9120 nM |
| C[C@@H]1CCN(C(=O)c2cccc(OC(F)(F)F)c2F)C[C@H]1c1cc(C(F)F)nc2ncnn12 [Compound 241] | 1740 nM | 88% | 20.9 nM | 97% | 97% | 20.9 nM | 94% | 269 nM | 94% | 269 nM |
| C[C@@H]1CCN(C(=O)c2ccc(C(F)(F)F)nc2Cl)C[C@H]1c1cc(C(F)F)nc2ncnn12 [Compound 242] | 6170 nM | 67% | 135 nM | 97% | 97% | 135 nM | 56% | 8130 nM | 56% | 8130 nM |
| C[C@@H]1CCN(C(=O)c2ccno2)C[C@H]1c1cc(C(F)F)nc2ncnn12 [Compound 243] | > 10000 nM | 13% | 132 nM | 99% | 99% | 132 nM | 70% | 3630 nM | 70% | 3630 nM |

Further lines, results first:

| IC50 [1] | Emax [1] | IC50 [2, 4] | Emax ([2]; human recombinant PDE2A) | Emax [2] | IC50 [2] | Emax [3, 5] | IC50 [3, 6] | Emax [3, 7] | IC50 [3, 8] | SMILES |
| --- | --- | --- | --- | --- | --- | --- | --- | --- | --- | --- |
| > 10000 nM | 12% |  |  | 92% | 676 nM | 54% | 9330 nM | 54% | 9330 nM | Cc1ncc(C(=O)N2CC[C@@H](C)[C@H](c3cc(C(F)F)nc4ncnn34)C2)cn1 [Compound 244] |
| 5890 nM | 62% |  |  | 99% | 123 nM | 79% | 2190 nM | 79% | 2190 nM | C[C@@H]1CCN(C(=O)c2ccc(F)c(F)c2F)C[C@H]1c1cc(C(F)F)nc2ncnn12 [Compound 245] |
| > 10000 nM | 25% |  |  | 98% | 126 nM | 44% | > 10000 nM | 44% | > 10000 nM | CCCOc1cccnc1C(=O)N1CC[C@@H](C)[C@H](c2cc(C(F)F)nc3ncnn23)C1 [Compound 246] |
| 2040 nM | 85% |  |  | 98% | 155 nM | 77% | 2880 nM | 77% | 2880 nM | COc1c(C(=O)N2CC[C@@H](C)[C@H](c3cc(C(F)F)nc4ncnn34)C2)cccc1C(F)(F)F [Compound 247] |
| > 10000 nM | 2% |  |  | 95% | 347 nM | 49% | 10500 nM | 49% | 10500 nM | C[C@@H]1CCN(C(=O)c2ccnnc2)C[C@H]1c1cc(C(F)F)nc2ncnn12 [Compound 248] |
| > 10000 nM | 10% |  |  | 95% | 372 nM | 45% | > 10000 nM | 45% | > 10000 nM | C[C@@H]1CCN(C(=O)c2cncnc2)C[C@H]1c1cc(C(F)F)nc2ncnn12 [Compound 249] |
| > 10000 nM | 28% |  |  | 99% | 132 nM | 64% | 4900 nM | 64% | 4900 nM | C[C@@H]1CCN(C(=O)c2cc(F)ccn2)C[C@H]1c1cc(C(F)F)nc2ncnn12 [Compound 250] |
| > 10000 nM | 17% |  |  | 98% | 282 nM | 53% | 8710 nM | 53% | 8710 nM | C[C@@H]1CCN(C(=O)c2ccc(F)cn2)C[C@H]1c1cc(C(F)F)nc2ncnn12 [Compound 251] |
| > 10000 nM | 17% |  |  | 96% | 708 nM | 66% | 6760 nM | 66% | 6760 nM | Cc1nc(C(=O)N2CC[C@@H](C)[C@H](c3cc(C(F)F)nc4ncnn34)C2)c(C)o1 [Compound 252] |
